Test results taken from patent US20050209157A1, “Short bioactive peptides and methods for their use” (priority 2001, published 2005).
No end group written: not given here.

Legend:
S. aureus (MRSA) = format: cell-based, Staphylococcus aureus; settings: Table 15, strain SAP0017; in µg/mL
E. coli UB1005 = format: cell-based, Escherichia coli; settings: Table 14
Candida albicans 105 = format: cell-based; settings: Table 15; in µg/mL
S. typhimurium 14028S = format: cell-based, Salmonella typhimurium; settings: Table 14
S. epidermidis C621 = format: cell-based, Staphylococcus epidermidis; settings: Table 15
[1] = test system: Pseudomonas aeruginosa H187; format: cell-based; settings: Table 15; in µg/mL
P. aeruginosa H374 = format: cell-based, Pseudomonas aeruginosa; settings: Table 14; in µg/mL
[2] = test system: human leukocyte (WBC) cells; assay: Stimulation and proliferation of leukocytes, Alamar Blue; format: cell-based; settings: for Peptide treated cell activity Percent stimulation relative to control: 48 hours
Protocol: In vitro viability of human leukocyte cells in the presence of different peptides at different concentrations was determined by an Alamar Blue protocol. Alamar Blue (Promega, Madison, Wis.) is an indicator dye, formulated to measure quantitatively the proliferation and cytotoxicity of the cells. The dye consists of an oxidation-reduction (redox) indicator that yields a calorimetric change and a fluorescent signal in response to cellular metabolic activity.
Assay protocol: Blood from a human was drawn and centrifuged at 1500 rpm for 15 minutes at room temperature. The buffy coat cells at the plasma-red blood cell interface were aspirated. Buffy coat cells (mainly lymphocyte cells) were then transferred into 15 ml centrifuge tubes containing 5 ml of RPMI-1640 medium+10% Fetal Bovine Serum (Gibco, Grand Island, N.Y.). Additional medium was added to the tubes to bring the volume up to 10 ml. The buffy coat suspension was then carefully layered on 5 ml of Histopaque (Sigma Chemical Co., St. Louis, Mo.) and centrifuged at 1500 rpm for 30 minutes at room temperature. The interface which is mostly PBMCs (peripheral mononuclear cells) was aspirated and transferred to a 15 ml conical centrifuge tube and, resuspended in 2 ml cold RPMI-1640 and brought up to 15 ml with cold RPMI-1640 medium. Cells were centrifuged at 1500 rpm for 10 minutes. The supernatant was then aspirated and discarded. The cell pellet was re-suspended in 1 ml of cold RPMI 1640 and brought up to 15 ml with RPMI medium. This step was repeated twice, except that in the last step, the cells were resuspended with 1 ml of cold RPMI-1640 medium and cell counts were performed with a hemocytometer according to the Sigma cell culture catalogue.
Pokewood mitogen was used as a control along with positive and negative controls. Negative control cells were killed with 70% methanol. Positive (+) control cells were incubated in RPMI medium (untreated). […] of AlamarBlue was added to the cells, and readings were taken after 24 hours, 48 hours, 72 hours, and 96 hours using a fluorimeter (excitation 544/transmission 590 nm).
Calculations were performed using the following formula. The peptide treated sample and positive control were adjusted for negative control. [formula]
Using the protocol described immediately above, about 100-150 peptides were screened for their stimulatory and/or inhibitory actions upon the growth of human leukocyte (“WBC”) cells as compared to the growth of untreated positive control cells.
The Alamar Blue stain used in the protocol permeates both cell and nuclear membranes, and is metabolized in the mitochondria to cause the change in color. The resulting fluorometric response is therefore a result of total mitochondrial activity caused by cell stimulation and/or mitosis (cell proliferation).

WI38 = settings: MTT, 24 hours with peptide
[3] = test system: yeast (Saccharomyces cerevisiae); assay: Antimicrobial assay I, yeast assay in RPMI 1640; format: cell-based; settings: RPMI 1640 media
[4] = test system: Staphylococcus aureus ATCC 6538; assay: Antimicrobial assay I, MIC by OD measurement; format: cell-based; settings: 37° C. for 24 hours, absorbance 620 nm
[5] = test system: Pseudomonas aeruginosa ATCC 9027; assay: Antimicrobial assay I, MIC by OD measurement; format: cell-based; settings: 37° C. for 24 hours, absorbance 620 nm
[6] = test system: human red blood cells (RBC); assay: in vitro; format: cell-based; settings: for Peptide toxicity RBC LD/50: human red blood cells
PC3 = assay: Anti-cancer assay, MTT, LD50; format: cell-based; settings: 24 hours with peptide, prostate adenocarcinoma
Excerpt: (§1) Numbers are LD50 values (μg/mL).

H1299 = assay: Anti-cancer assay, MTT, LD50; format: cell-based; settings: 24 hours with peptide, lung large cell carcinoma
Excerpt: as §1

SW480 = assay: Anti-cancer assay, MTT, LD50; format: cell-based; settings: SW480 colon adenocarcinoma line, 24 hours with peptide
Excerpt: as §1

MCF7 = assay: Anti-cancer assay, MTT, LD50; format: cell-based; settings: MCF7 breast adenocarcinoma line, MTT, 24 hours with peptide
Excerpt: as §1

BMKC = assay: Anti-cancer assay, MTT, LD50; format: cell-based; settings: BMKC cloned melanoma line, 24 hours with peptide
Excerpt: as §1

HeLaS3 = assay: Anti-cancer assay, MTT, LD50; format: cell-based; settings: 24 hours with peptide, cervical carcinoma
Excerpt: as §1

in vitro = settings: human, WI38 normal lung fibroblast cells, Peptide toxicity WI-38 LD/50, human fibroblast cells

| Substance | MIC S. aureus SAP0017 (S. aureus (MRSA)) | MIC E. coli UB1005 (E. coli UB1005) | MIC C. albicans 105 (Candida albicans 105) | MIC S. typhimurium 14028S (S. typhimurium 14028S) | MIC S. epidermidis C621 (S. epidermidis C621) | MIC P. aeruginosa H187 [1] | MIC P. aeruginosa H374 (P. aeruginosa H374) | other results |
| --- | --- | --- | --- | --- | --- | --- | --- | --- |
| FAFAKIIAKIAKKII-NH2 [P140 (102)] | >128 | > 128 µg/mL | >128 | > 128 µg/mL | > 128 µg/mL | >128 | >128 |  |
| FAKLF-NH2 [P129 (91)] | >128 | 64 µg/mL | 128 | > 128 µg/mL | 32 µg/mL | >128 | >128 |  |
| FALAKALKKAL-NH2 [P166 (127)] | >128 | > 128 µg/mL | >128 | > 128 µg/mL | > 128 µg/mL | >128 | >128 |  |
| FAKLAKKALAKLL-NH2 [P148 (110)] | >128 | 128 µg/mL | 128 | > 128 µg/mL | 128 µg/mL | >128 | >128 |  |
| FAKLLAKLAKAKL-NH2 [P65 (44)] | >128 | 128 µg/mL | 64 | > 128 µg/mL | > 128 µg/mL | >128 | 64 |  |
| FAKLLAKLAKKEL-NH2 [P126 (88)] | >128 | > 128 µg/mL | >128 | > 128 µg/mL | > 128 µg/mL | >128 | >128 |  |
| FAKIIAKIAKKI-NH2 [P143 (105)] | >128 | > 128 µg/mL | >128 | > 128 µg/mL | > 128 µg/mL | >128 | >128 |  |
| KAKLAKKALAKLL-NH2 [P149 (111)] | >128 | 32 µg/mL | 128 | > 128 µg/mL | > 128 µg/mL | >128 | 128 |  |
| FAKLLAKKLL-NH2 [P57 (37)] | >128 | > 128 µg/mL | 128 | > 128 µg/mL | > 128 µg/mL | >128 | >128 |  |
| FAFGKGIGKIGKKGL-NH2 [P138 (100)] | >128 | > 128 µg/mL | >128 | > 128 µg/mL | > 128 µg/mL | >128 | >128 |  |
| KWKLAKKALALL-NH2 [P142 (104)] | >128 | 64 µg/mL | 64 | 128 µg/mL | 128 µg/mL | >128 | >128 |  |
| MPKEKVFLKIEKMGRNIRN-NH2 [P107 (71)] | >128 | > 128 µg/mL | >128 | > 128 µg/mL | > 128 µg/mL | >128 | >128 |  |
| FAKLLAKLAKKAA-NH2 [P93 (59)] | >128 | 128 µg/mL | 64 | > 128 µg/mL | > 128 µg/mL | >128 | 128 |  |
| FALKALKK-NH2 [P145 (107)] | >128 | > 128 µg/mL | 64 | > 128 µg/mL | > 128 µg/mL | >128 | >128 |  |
| FAKKLAKALL-NH2 [P58 (38)] | >128 | > 128 µg/mL | 64 | > 128 µg/mL | > 128 µg/mL | >128 | >128 |  |
| FAKLLAKLAKAKG-NH2 [P96 (62)] | >128 | > 128 µg/mL | >128 | > 128 µg/mL | > 128 µg/mL | >128 | >128 |  |
| FALALKAKKL-NH2 [P182] |  |  |  |  |  |  |  | stimulatory and/or inhibitory action on growth of human leukocyte (WBC) cells ([2]; compared to untreated positive control cells, Alamar Blue): stimulatory (and/or proliferative) at all concentrations through 500 μg/ml; WI38 LD50 (WI38; normal fibroblast line): > (> indicates greater than 1000); LD50 WI38 (WI38; WI38 normal lung fibroblast line): > (> indicates greater than 1000); yeast (MIC or MFC) [3]: > (> indicates greater than 200 μg/mL); staph6538 (MIC) [4]: > (> indicates greater than 200 μg/mL); paerug9027 (MIC) [5]: > (> indicates greater than 200 μg/mL); LD50 ([6]; hemolytic assay, concentration at 50% hemolysis, 1 hour at 37° C.): > (> indicates greater than 1000); PC3 LD50 (PC3): > (> indicates greater than 1000); H1299 LD50 (H1299): > (> indicates greater than 1000); LD50 SW480 (SW480): > (> indicates greater than 1000); LD50 MCF7 (MCF7): > (> indicates greater than 1000); LD50 BMKC (BMKC): > (> indicates greater than 1000); HeLaS3 LD50 (HeLaS3): > (> indicates greater than 1000) |
| FAKLLAKLAKAKA-NH2 [compound 61] |  |  |  |  |  |  |  | Peptide treated cell activity Percent stimulation relative to control ([2]; 0.1 ug/ml): 110%; Peptide treated cell activity Percent stimulation relative to control ([2]; 1 ug/ml): 115%; Peptide treated cell activity Percent stimulation relative to control ([2]; 10 ug/ml): 116%; Peptide treated cell activity Percent stimulation relative to control ([2]; 100 ug/ml): 124%; Peptide treated cell activity Percent stimulation relative to control ([2]; 500 ug/ml): 114%; CC50 at 24 h (in vitro): > 1000 µg/mL; Peptide toxicity RBC LD/50 [6]: >1000 |
| MPKEKVFLKIEKMGRNIRN-NH2 [compound 71] |  |  |  |  |  |  |  | Peptide treated cell activity Percent stimulation relative to control ([2]; 0.1 ug/ml): 101%; Peptide treated cell activity Percent stimulation relative to control ([2]; 1 ug/ml): 100%; Peptide treated cell activity Percent stimulation relative to control ([2]; 10 ug/ml): 108%; Peptide treated cell activity Percent stimulation relative to control ([2]; 100 ug/ml): 109%; Peptide treated cell activity Percent stimulation relative to control ([2]; 500 ug/ml): 110%; CC50 at 24 h (in vitro): > 1000 µg/mL; Peptide toxicity RBC LD/50 [6]: >1000 |
| FAVGLRAIKRALKKLRRGVRKVAKDL-NH2 [compound 119] |  |  |  |  |  |  |  | Peptide treated cell activity Percent stimulation relative to control ([2]; 0.1 ug/ml): 88%; Peptide treated cell activity Percent stimulation relative to control ([2]; 1 ug/ml): 108%; Peptide treated cell activity Percent stimulation relative to control ([2]; 10 ug/ml): 54%; Peptide treated cell activity Percent stimulation relative to control ([2]; 100 ug/ml): 117%; Peptide treated cell activity Percent stimulation relative to control ([2]; 500 ug/ml): 89%; CC50 at 24 h (in vitro): 500 µg/mL; Peptide toxicity RBC LD/50 [6]: 850 |
